According to ChEMBL document CHEMBL6078673, “Synthesis and anti-tumor activity of menthylamine derivatives: Focusing on the potent inhibitory effect of compound W8 on glioma growth” (Bioorg Med Chem, 2025):
≈ marks a conversion by molar mass, not a printed value. Calls of active or inactive are those of the source. No cut-off for these calls is given here.

Tests used:
U-87 MG [1] = test: Antiproliferative activity against human U87 cells assessed as inhibition of cell growth incubated for 24 hrs by CCK-8 assay; assay type: functional, cell-based, U-87MG ATCC
MCF7 = test: Antiproliferative activity against human MCF7 cells assessed as inhibition of cell growth incubated for 24 hrs by CCK-8 assay; assay type: functional, cell-based; settings: MCF7, 24 h
HCT-116 = test: Antiproliferative activity against human HCT-116 cells assessed as inhibition of cell growth incubated for 24 hrs by CCK-8 assay; assay type: functional, cell-based; settings: HCT-116, 24 h
KYSE-150 cell line = test: Antiproliferative activity against human KYSE-150 cell line assessed as inhibition of cell growth incubated for 24 hrs by CCK-8 assay; assay type: functional, cell-based; settings: KYSE-150, 24 h
[2] = Kinetic solubility in PBS at pH 7.4 incubated under shaking condition for 24 hrs by LC-MS/MS analysis; assay type: physicochemical; settings: read-out: Kinetic_solubility
[3] = Apparent permeability across apical to basolateral side in human Caco-2 cells at 2 uM incubated for 2 hrs by LC-MS/MS analysis; assay type: ADME, cell-based; settings: Caco-2
[4] = Apparent permeability across basolateral to apical side in human Caco-2 cells at 2 uM incubated for 2 hrs by LC-MS/MS analysis; assay type: ADME, cell-based; settings: Caco-2
[5] = Efflux ratio of apparent permeability from basolateral to apical side over apical to basolateral side in human Caco-2 cells at 2 uM incubated for 2 hr by LC-MS/MS analysis; assay type: ADME, cell-based; settings: Caco-2
[6] = Metabolic stability in liver microsomes (unknown origin) assessed as half life incubated for 60 mins by LC-MS/MS analysis; assay type: ADME, Microsome
[7] = Metabolic stability in liver microsomes (unknown origin) assessed as compound remaining incubated for 60 mins by LC-MS/MS analysis; assay type: ADME, Microsome; settings: read-out: Stability
U-87 MG [8] = test: Induction of apoptosis in human U87 cells at 80 uM incubated for 24 hrs by Annexin V-FITC/PI staining based flow cytometry; assay type: functional, U-87MG ATCC
U-87 MG [9] = test: Induction of apoptosis in human U87 cells assessed as increase in number of apoptotic cells at 80 uM incubated for 24 hrs by Annexin V-FITC/PI staining based flow cytometry; assay type: functional, cell-based; settings: U-87MG ATCC
U-87 MG [10] = test: Induction of apoptosis in human U87 cells assessed as increase in number of early apoptotic cells at 80 uM incubated for 24 hrs by Annexin V-FITC/PI staining based flow cytometry; assay type: functional, cell-based; settings: U-87MG ATCC
U-87 MG [11] = test: Induction of apoptosis in human U87 cells assessed as increase in number of late apoptotic cells at 80 uM incubated for 24 hrs by Annexin V-FITC/PI staining based flow cytometry; assay type: functional, cell-based; settings: U-87MG ATCC
U-87 MG [12] = test: Induction of apoptosis in human U87 cells assessed as increase in number of necrotic cells at 80 uM incubated for 24 hrs by Annexin V-FITC/PI staining based flow cytometry; assay type: functional, cell-based; settings: U-87MG ATCC
U-87 MG [13] = test: Induction of cell cycle arrest in human U87 cells assessed as decrease in number of cells at G1 phase at 80 uM incubated for 24 hrs by RNase/PI staining based flow cytometry; assay type: functional; settings: U-87MG ATCC
U-87 MG [14] = test: Induction of cell cycle arrest in human U87 cells assessed as decrease in number of cells at G2 phase at 80 uM incubated for 24 hrs by RNase/PI staining based flow cytometry; assay type: functional; settings: U-87MG ATCC
U-87 MG [15] = test: Induction of cell cycle arrest in human U87 cells assessed as increase in number of cells at S phase at 80 uM incubated for 24 hrs by RNase/PI staining based flow cytometry; assay type: functional; settings: U-87MG ATCC
U-87 MG [16] = test: Inhibition of cell migration in human U87 cells at 80 uM incubated for 48 hrs by scratch assay; assay type: functional, cell-based; settings: U-87MG ATCC
U-87 MG [17] = test: Inhibition of cell invasion in human U87 cells incubated for 48 hrs by crystal violet staining based microscopic analysis; assay type: functional; settings: U-87MG ATCC
HUVEC = test: Antiangiogenesis activity in human HUVEC cells assessed as inhibition of vascular structure formation at 80 uM incubated for 12 hrs by inverted fluorescence microscopic analysis; assay type: functional, cell-based
U-87 MG [18] = test: Antiangiogenesis activity in human U87 cells assessed as inhibition of neovascularization at 80 uM incubated for 12 hrs by inverted fluorescence microscopic analysis; assay type: functional, cell-based; settings: U-87MG ATCC
U-87 MG [19] = test: Antitumor activity in human U87 cells assessed as downregulation of […] expression at 80 uM incubated for 24 hrs by Western blotting analysis; assay type: functional, cell-based; settings: U-87MG ATCC
U-87 MG [20] = test: Antitumor activity in human U87 cells assessed as downregulation of CD133 expression at 80 uM incubated for 24 hrs by Western blotting analysis; assay type: functional, cell-based; settings: U-87MG ATCC
U-87 MG [21] = test: Antitumor activity in human U87 cells assessed as downregulation of ANGP-2 expression at 80 uM incubated for 24 hrs by Western blotting analysis; assay type: functional, cell-based; settings: U-87MG ATCC
U-87 MG [22] = test: Antitumor activity in human U87 cells assessed as downregulation of VEGFR2 expression at 80 uM incubated for 24 hrs by Western blotting analysis; assay type: functional, cell-based; settings: U-87MG ATCC
U-87 MG [23] = test: Antitumor activity in human U87 cells assessed as upregulation of cleaved caspase-3 expression at 80 uM incubated for 24 hrs by Western blotting analysis; assay type: functional, cell-based; settings: U-87MG ATCC
U-87 MG [24] = test: Antitumor activity against human U87 cells xenografted in Balb/c mouse assessed as reduction in tumor size at 10 mg/kg,ip administered every 3 days measured after 27 days; assay type: functional, organism-based; settings: U-87MG ATCC, time 27.0 day
[25] = Toxicity in Balb/c mouse xenografted with human U87 cells assessed as body weight loss at 10 mg/kg,ip administered every 3 days measured after 27 days; assay type: organism-based; settings: in vivo, 648 h, time 27 day
[26] = Toxicity in Balb/c mouse xenografted with human U87 cells assessed as histological change in heart at 10 mg/kg,ip administered every 3 days measured after 27 days by hematoxylin and eosin staining based assay; assay type: organism-based; settings: in vivo, 648 h, time 27 day
[27] = Toxicity in Balb/c mouse xenografted with human U87 cells assessed as histological change in liver at 10 mg/kg,ip administered every 3 days measured after 27 days by hematoxylin and eosin staining based assay; assay type: organism-based; settings: in vivo, 648 h, time 27 day
[28] = Toxicity in Balb/c mouse xenografted with human U87 cells assessed as histological change in spleen at 10 mg/kg,ip administered every 3 days measured after 27 days by hematoxylin and eosin staining based assay; assay type: organism-based; settings: in vivo, 648 h, time 27 day
[29] = Toxicity in Balb/c mouse xenografted with human U87 cells assessed as histological change in lung at 10 mg/kg,ip administered every 3 days measured after 27 days by hematoxylin and eosin staining based assay; assay type: organism-based; settings: in vivo, 648 h, time 27 day
[30] = Toxicity in Balb/c mouse xenografted with human U87 cells assessed as histological change in kidney at 10 mg/kg,ip administered every 3 days measured after 27 days by hematoxylin and eosin staining based assay; assay type: organism-based; settings: in vivo, 648 h, time 27 day
[31] = Toxicity in Balb/c mouse xenografted with human U87 cells assessed as histological change in brain at 10 mg/kg,ip administered every 3 days measured after 27 days by hematoxylin and eosin staining based assay; assay type: organism-based; settings: in vivo, 648 h, time 27 day
[32] = Toxicity in Balb/c mouse xenografted with human U87 cells assessed as histological change in heart at 10 mg/kg,ip administered every 3 days measured after 27 days by TUNEL staining based assay; assay type: organism-based; settings: in vivo, 648 h, time 27 day
[33] = Toxicity in Balb/c mouse xenografted with human U87 cells assessed as histological change in liver at 10 mg/kg,ip administered every 3 days measured after 27 days by TUNEL staining based assay; assay type: organism-based; settings: in vivo, 648 h, time 27 day
[34] = Toxicity in Balb/c mouse xenografted with human U87 cells assessed as histological change in spleen at 10 mg/kg,ip administered every 3 days measured after 27 days by TUNEL staining based assay; assay type: organism-based; settings: in vivo, 648 h, time 27 day
[35] = Toxicity in Balb/c mouse xenografted with human U87 cells assessed as histological change in lung at 10 mg/kg,ip administered every 3 days measured after 27 days by TUNEL staining based assay; assay type: organism-based; settings: in vivo, 648 h, time 27 day
[36] = Toxicity in Balb/c mouse xenografted with human U87 cells assessed as histological change in kidney at 10 mg/kg,ip administered every 3 days measured after 27 days by TUNEL staining based assay; assay type: organism-based; settings: in vivo, 648 h, time 27 day
[37] = Toxicity in Balb/c mouse xenografted with human U87 cells assessed as histological change in brain at 10 mg/kg,ip administered every 3 days measured after 27 days by TUNEL staining based assay; assay type: organism-based; settings: in vivo, 648 h, time 27 day

CC(C)[C@H]1CC[C@@H](C)C[C@@H]1N1C(=O)c2ccccc2C1=O
IC50 (U-87 MG [1]): 65.3 µM | IC50 (MCF7): 1490 µM | IC50 (HCT-116): 57.2 µM | IC50 (KYSE-150 cell line): 972 µM | solubility kinetic at 24 h [2]: 0.03 µM (≈ 8.56 ng/mL) | Papp A→B at 2 h, 2 µM [3]: 25.7 ×10⁻⁶ cm/s | Papp B→A at 2 h, 2 µM [4]: 13.3 ×10⁻⁶ cm/s | efflux ratio at 2 h, 2 µM [5]: 0.52 | half-life [6]: > 2.42 h | remaining at 1 h [7]: 82.8% | Activity (U-87 MG [8]): 90% | Activity (U-87 MG [9]): Active; Significantly Increased Activity Observed | Activity (U-87 MG [10]): Active | Activity (U-87 MG [11]): Active | Activity (U-87 MG [12]): Active | Activity (U-87 MG [13]): inactive | Activity (U-87 MG [14]): inactive | Activity (U-87 MG [15]): inactive | inhibition (U-87 MG [16]): Active | inhibition (U-87 MG [17]): Active | Activity (HUVEC): Active | Activity (U-87 MG [18]): Active | Activity (U-87 MG [19]): Active | Activity (U-87 MG [20]): Active | Activity (U-87 MG [21]): Active | Activity (U-87 MG [22]): Active | Activity (U-87 MG [23]): Active | Activity (U-87 MG [24]): Active | Activity [25]: Non-toxic | Activity [26]: Non-toxic | Activity [27]: Non-toxic | Activity [28]: Non-toxic | Activity [29]: Non-toxic | Activity [30]: Non-toxic | Activity [31]: Non-toxic | Activity [32]: Non-toxic | Activity [33]: Non-toxic | Activity [34]: Non-toxic | Activity [35]: Non-toxic | Activity [36]: Non-toxic | Activity [37]: Non-toxic
